Assay results published in patent US20250268895A1, “Crystalline Forms of a BTK Inhibitor” (NOVARTIS AG, priority 2019, published 2025).
Values belong to the molecule of their own block, whether it stands above or below them.

Assays:
Format in all cases: physicochemical
[1] = Granulation simulation experiments; details: water, ethanol, 2-propanol, Acetone, benzylalcohol; dried under vacuum
Method: Granulating solvents were added drop wise to polymorphic Form A until solid is wetted sufficiently. The suspension was stirred by Vortex between each addition. The suspension was dried under vacuum. The remaining solid form was isolated and degree of crystallinity was analyzed by XRPD and/or DSC. The tested Granulating solvents were water, ethanol, 2-propanol, Acetone, benzylalcohol.

[2] = Moisture uptake at 80% and 92% RH (HT-XRPD, TGMS); details: 25° C., 24 hours
Method: The moisture sorption of Modification A was evaluated by exposing the solid material to 80% and 92% RH at 25° C. for 24 hours. Afterwards, the solids were analyzed by HT-XRPD to evaluate any change in crystalline phase, and by TGMS to determine the water uptake. […] Therefore, Modification A could be considered non-hygroscopic.

[3] = Stability under compression; details: 5 minutes at 10 tons, hydraulic press
Method: 100-300 mg of polymorphic Form A was compressed for 5 minutes at 10 tons with a hydraulic press (diameter of the tablets 13 mm). The sample was then analyzed by XRPD and DSC to check for any occurring polymorphic change.

[4] = Dynamic vapor sorption (DVS); details: for DVS highest change in mass: 95% RH
[5] = Physico-chemical stability under stress conditions (HR-XRPD, TGMS, HPLC assay); details: for XRPD pattern after stress conditions: all three test conditions (80° C. 1 month; 80° C./75% RH 1 month; 100° C. 3 days)
Method: Modifications A, B and C were subjected to the following stress conditions: • 80° C. in closed vials for 1 month; • 80° C./75% RH in open vials for 1 month; • 100° C. in closed vials for 3 days;
Afterwards, the solids were analyzed by HR-XRPD, TGMS and HPLC assay to evaluate potential solid phase change, loss on drying and chemical purity.
Upon completion of the stability test, all solids were analyzed by HR-XRPD, TGMS and HPLC assay.
Auto sampler temp.: 15° C.
Column: Waters Sunfire C18 (100×4.6 mm; 3.5 μm).
Gradient: Mobile phase A: 0.1% TFA in Water
Mobile phase B: 0.1% TFA in Acetonitrile

[6] = Solvent equilibration of Modification A (stability in solvent, HT-XRPD)
Method: (§1) Suspensions of Modification A were prepared in 23 selected solvents and let to equilibrate at room temperature (RT) for 4 weeks and at 50° C. for 2 weeks. Upon completion of the equilibration time, the solids were separated from the liquid phases, dried at ambient conditions and under vacuum (5 mbar/50° C.), and analyzed by HT-XRPD.
When the suspensions dissolved, the solvent was removed by evaporation under vacuum (initially at 200 mbar/RT, then at 5 mbar/50° C.). The liquid phases were also evaporated under the same conditions. Residual solids were analyzed by HT-XRPD.

[7] = Solvent equilibration of Modifications B and C (stability in solvent, HT-XRPD)
Method: as §1, with “Modifications B and C” for “Modification A”, “15” for “23”, “RT” for “room temperature (RT)”, “2” for “4”, “1 week.” for “2 weeks.”
When the suspensions dissolved, the solvent was removed by evaporation under vacuum (initially 200 mbar/RT, then 5 mbar/50° C.). The liquid phases were also evaporated under the same conditions. Residual solids were analyzed by HT-XRPD.

[8] = Conversion at room temperature monitored by HR-XRPD; details: left at room temperature
Text: Modification C (Example 2) was left at room temperature and the conversion into Modification B was monitored by HR-XRPD and it was complete after 5 days.

[9] = 80° C./75% RH, 1 month, open vial
[10] = Dichloromethane, 50° C., 1 week

Crystallinity (XRPD and/or DSC) after granulation simulation [1]: No change of crystallinity
TGMS mass loss after exposure to humidity ([2]; 80% RH): 0.2%
Hygroscopicity ([2]; 80% and 92% RH): non-hygroscopic
Physical stability (HT-XRPD) after exposure to humidity ([2]; 80 and 92% RH): physically stable
TGMS mass loss after exposure to humidity ([2]; 92% RH): 0.2%
Polymorphic change (XRPD and DSC) after compression [3]: no change to the material
Solid recovered after DVS measurements ([4]; 25° and 40° C.): still Modification A
DVS highest change in mass ([4]; 25° C.): 0.4%
DVS highest change in mass ([4]; 40° C.): 0.3%
Loss on drying ([5]; 80° C., 1 month, closed vial): 0.003%
Loss on drying [5, 9]: 0.003%
Loss on drying ([5]; 100° C., 3 days, closed vial): 0.003%
XRPD pattern after stress conditions [5]: unchanged
HT-XRPD Evap. ML ([6]; Acetone, 50° C., 2 weeks): A (l.y.)
HT-XRPD Evap. ML ([6]; Acetonitrile, 50° C., 2 weeks): A (l.y.)
HT-XRPD Evap. ML ([6]; Anisole, 50° C., 2 weeks): A (l.y.)
HT-XRPD Evap. ML ([6]; Chloroform, 50° C., 2 weeks): A + B
HT-XRPD Vacuum dried ([6]; DCM, RT, 4 weeks): B + C
HT-XRPD Evap. ML ([6]; Isopropyl acetate, 50° C., 2 weeks): A (l.y.)
HT-XRPD Evap. ML ([6]; MeOH, RT, 4 weeks): A (l.y.)
HT-XRPD Evap. ML ([6]; MeOH/Acetone 50/50, RT, 4 weeks): A (l.y.)
HT-XRPD Evap. ML ([6]; MeOH/DCM 50/50, RT, 4 weeks): B (l.y.)
HT-XRPD Vacuum dried ([6]; MeOH/DCM 50/50, RT, 4 weeks): B + C
HT-XRPD Evap. ML ([6]; Nitromethane, 50° C., 2 weeks): A (l.y.)
HT-XRPD Evap. ML ([6]; Water, 50° C., 2 weeks): A (l.y.)
Structure (SMILES): C=CC(=O)N(C)CCOc1c(N)ncnc1-c1cc(F)cc(NC(=O)c2ccc(C3CC3)cc2F)c1C [Modification A, N-(3-(6-Amino-5-(2-(N-methylacrylamido)ethoxy)pyrimidin-4-yl)-5-fluoro-2-methylphenyl)-4-cyclopropyl-2-fluorobenzamide]
DVS water vapor uptake ([4]; 25° and 40° C., RH profile 40-0-95-0-95-40%): did not show significant water vapor uptake

XRPD of solid recovered after DVS measurement ([4]; Modifications B and C, 25° C.): unchanged
Loss on drying ([5]; 80° C., 1 month, closed vial): 0.009%
Loss on drying [5, 9]: 0.004%
Loss on drying ([5]; 100° C., 3 days, closed vial): 0.004%
XRPD pattern after stress conditions [5]: unchanged
HT-XRPD Evap. ML ([7]; Acetonitrile, 50° C., 1 week): A (l.y.)
HT-XRPD Evap. ML ([7]; Anisole, RT, 2 weeks): A (l.y.)
HT-XRPD Ambient Dried ([7]; Chloroform, RT, 2 weeks): A (l.y)
HT-XRPD Vacuum dried ([7]; Chloroform, RT, 2 weeks): (l.c.)
HT-XRPD Evap. ML [7, 10]: B + C
HT-XRPD Vacuum dried [7, 10]: B + C
HT-XRPD Ambient Dried ([7]; Dichloromethane, RT, 2 weeks): C (l.c.)
HT-XRPD Evap. ML ([7]; Dichloromethane, RT, 2 weeks): B + SB (l.y.)
HT-XRPD Vacuum dried ([7]; Dichloromethane, RT, 2 weeks): B + C
HT-XRPD Evap. ML ([7]; Ethanol, 50° C., 1 week): A (l.y.)
HT-XRPD Evap. ML ([7]; Isopropyl acetate, 50° C., 1 week): A (l.y.)
HT-XRPD Evap. ML ([7]; Nitromethane, RT, 2 weeks): A (l.y.)
Structure (SMILES): C=CC(=O)N(C)CCOc1c(N)ncnc1-c1cc(F)cc(NC(=O)c2ccc(C3CC3)cc2F)c1C [Modification B, N-(3-(6-Amino-5-(2-(N-methylacrylamido)ethoxy)pyrimidin-4-yl)-5-fluoro-2-methylphenyl)-4-cyclopropyl-2-fluorobenzamide]
DVS water vapor uptake ([4]; Modifications B and C): did not show significant water vapor uptake

Time to complete conversion into Modification B [8]: 5 days
XRPD of solid recovered after DVS measurement ([4]; Modifications B and C, 25° C.): mixture of Modifications B and C
Loss on drying ([5]; 80° C., 1 month, closed vial): 0.007%
Loss on drying [5, 9]: 0.006%
Loss on drying ([5]; 100° C., 3 days, closed vial): 0.003%
XRPD pattern after stress conditions [5]: converted to Modification B
HT-XRPD Evap. ML ([7]; 2-Methyl-2-butanol, 50° C., 1 week): A (l.y.)
HT-XRPD Evap. ML ([7]; Acetone, 50° C., 1 week): A (l.y.)
HT-XRPD Evap. ML ([7]; Acetonitrile, 50° C., 1 week): A (l.y.)
HT-XRPD Evap. ML ([7]; Anisole, RT, 2 weeks): A (l.y.)
HT-XRPD Ambient Dried ([7]; Chloroform, RT, 2 weeks): C + SC
HT-XRPD Evap. ML ([7]; Chloroform, RT, 2 weeks): C + SC
HT-XRPD Evap. ML ([7]; Cyclopentanone, RT, 2 weeks): A (l.y)
HT-XRPD Evap. ML [7, 10]: C (l.y.)
HT-XRPD Vacuum dried ([7]; Dichloromethane, RT, 2 weeks): B + C
HT-XRPD Evap. ML ([7]; Ethanol, 50° C., 1 week): A (l.y.)
HT-XRPD Evap. ML ([7]; Ethanol, RT, 2 weeks): A (l.y.)
HT-XRPD Evap. ML ([7]; Isopropyl acetate, RT, 2 weeks): A (l.y.)
HT-XRPD Evap. ML ([7]; Methanol, RT, 2 weeks): A (l.y.)
HT-XRPD Evap. ML ([7]; Nitromethane, 50° C., 1 week): A (l.y.)
HT-XRPD Evap. ML ([7]; Nitromethane, RT, 2 weeks): A (l.y.)
HT-XRPD Evap. ML ([7]; Water, RT, 2 weeks): A (l.y.)
Structure (SMILES): C=CC(=O)N(C)CCOc1c(N)ncnc1-c1cc(F)cc(NC(=O)c2ccc(C3CC3)cc2F)c1C [Modification C, N-(3-(6-Amino-5-(2-(N-methylacrylamido)ethoxy)pyrimidin-4-yl)-5-fluoro-2-methylphenyl)-4-cyclopropyl-2-fluorobenzamide]
DVS water vapor uptake ([4]; Modifications B and C): did not show significant water vapor uptake
